For orientation: Ki means the dissociation constant of the complex between target and ligand, obtained from inhibition or displacement.

Here are results for 38 compounds from patent US8921376B2, “Pyrrolopyridines useful as inhibitors of protein kinase” (Vertex Pharmaceuticals Incorporated, priority 2005, dated 2014).

Common to all, as to type: biochemical
Holding throughout (details): Table 6; enzyme inhibition data (Ki)

One assay concerns the target T1, JAK3 (Homo sapiens, UniProt P52333).
T1 sequence (P52333 1-1124): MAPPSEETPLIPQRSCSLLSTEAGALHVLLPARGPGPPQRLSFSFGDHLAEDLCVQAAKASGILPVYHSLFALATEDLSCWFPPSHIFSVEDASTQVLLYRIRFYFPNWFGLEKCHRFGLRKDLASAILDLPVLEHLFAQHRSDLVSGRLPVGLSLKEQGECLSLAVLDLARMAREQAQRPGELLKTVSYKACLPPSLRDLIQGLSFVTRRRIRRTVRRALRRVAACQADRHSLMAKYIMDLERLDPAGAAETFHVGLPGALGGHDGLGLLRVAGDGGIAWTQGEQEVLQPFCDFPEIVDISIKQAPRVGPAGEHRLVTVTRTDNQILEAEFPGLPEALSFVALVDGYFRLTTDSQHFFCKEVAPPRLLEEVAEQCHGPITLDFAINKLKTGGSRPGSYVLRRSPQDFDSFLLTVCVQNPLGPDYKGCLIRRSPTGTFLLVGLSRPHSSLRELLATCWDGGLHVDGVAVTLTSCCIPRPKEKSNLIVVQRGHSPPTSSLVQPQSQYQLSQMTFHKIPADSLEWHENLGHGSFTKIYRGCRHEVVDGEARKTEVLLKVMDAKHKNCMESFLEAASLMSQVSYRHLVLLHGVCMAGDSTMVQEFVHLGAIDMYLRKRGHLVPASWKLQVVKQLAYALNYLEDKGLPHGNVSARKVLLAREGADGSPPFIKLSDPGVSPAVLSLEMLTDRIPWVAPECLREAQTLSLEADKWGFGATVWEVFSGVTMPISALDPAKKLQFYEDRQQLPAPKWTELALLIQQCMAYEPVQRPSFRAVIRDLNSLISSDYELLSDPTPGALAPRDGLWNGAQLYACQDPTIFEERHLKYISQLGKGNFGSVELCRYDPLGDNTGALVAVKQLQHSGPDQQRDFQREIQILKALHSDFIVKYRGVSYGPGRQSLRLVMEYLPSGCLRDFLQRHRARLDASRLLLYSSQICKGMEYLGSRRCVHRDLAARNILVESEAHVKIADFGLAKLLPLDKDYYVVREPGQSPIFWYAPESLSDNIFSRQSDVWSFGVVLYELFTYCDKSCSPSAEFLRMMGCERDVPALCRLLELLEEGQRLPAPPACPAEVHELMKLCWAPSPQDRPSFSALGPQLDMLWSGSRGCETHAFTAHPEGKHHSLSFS
The assay can be described thus: JAK3 inhibition assay (33P incorporation into poly(Glu)4Tyr). In short, it runs like this: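 After TCA quench and filter harvest, scintillation counting of 33P measured phosphorylation of poly(Glu)4Tyr (1 μM) by 1 nM JAK3. The 20-min, 25° C. reaction contained 5 μM ATP (200 μCi/μmole) in pH 7.4 HEPES buffer with 10 mM MgCl2.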

In a further assay the target is JAK2 (Homo sapiens, UniProt O60674). Briefly: JAK2 inhibition assay (as Example 3 with JAK-2 enzyme). The method, boiled down:
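In HEPES pH 7.4 buffer with 10 mM MgCl2, 1 mM DTT, 25 mM NaCl and 0.01% BSA, JAK2 enzyme phosphorylated poly(Glu)4Tyr (final 15 μM) using 33P-ATP (final 12 μM) for 20 min at room temperature (25 °C). Reactions stopped with TCA; incorporated 33P measured by scintillation after filtration.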

The target in a further assay is ROCK I (Homo sapiens, UniProt Q13464). Briefly: ROCK-I inhibition assay (radioactive enzyme assay, MBP substrate). The method, boiled down:
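Human ROCK at 5 nM phosphorylated 27 μM myelin basic protein with 13 μM [γ-33P]ATP (final) in HEPES pH 7.5, MgCl2, NaCl, DTT and 1.5% DMSO. Reactions ran 2 h at room temperature before TCA quench and filter-plate scintillation counting. After background subtraction, data were fit to give Ki(app).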

ROCK I, sequence (Q13464 whole entry): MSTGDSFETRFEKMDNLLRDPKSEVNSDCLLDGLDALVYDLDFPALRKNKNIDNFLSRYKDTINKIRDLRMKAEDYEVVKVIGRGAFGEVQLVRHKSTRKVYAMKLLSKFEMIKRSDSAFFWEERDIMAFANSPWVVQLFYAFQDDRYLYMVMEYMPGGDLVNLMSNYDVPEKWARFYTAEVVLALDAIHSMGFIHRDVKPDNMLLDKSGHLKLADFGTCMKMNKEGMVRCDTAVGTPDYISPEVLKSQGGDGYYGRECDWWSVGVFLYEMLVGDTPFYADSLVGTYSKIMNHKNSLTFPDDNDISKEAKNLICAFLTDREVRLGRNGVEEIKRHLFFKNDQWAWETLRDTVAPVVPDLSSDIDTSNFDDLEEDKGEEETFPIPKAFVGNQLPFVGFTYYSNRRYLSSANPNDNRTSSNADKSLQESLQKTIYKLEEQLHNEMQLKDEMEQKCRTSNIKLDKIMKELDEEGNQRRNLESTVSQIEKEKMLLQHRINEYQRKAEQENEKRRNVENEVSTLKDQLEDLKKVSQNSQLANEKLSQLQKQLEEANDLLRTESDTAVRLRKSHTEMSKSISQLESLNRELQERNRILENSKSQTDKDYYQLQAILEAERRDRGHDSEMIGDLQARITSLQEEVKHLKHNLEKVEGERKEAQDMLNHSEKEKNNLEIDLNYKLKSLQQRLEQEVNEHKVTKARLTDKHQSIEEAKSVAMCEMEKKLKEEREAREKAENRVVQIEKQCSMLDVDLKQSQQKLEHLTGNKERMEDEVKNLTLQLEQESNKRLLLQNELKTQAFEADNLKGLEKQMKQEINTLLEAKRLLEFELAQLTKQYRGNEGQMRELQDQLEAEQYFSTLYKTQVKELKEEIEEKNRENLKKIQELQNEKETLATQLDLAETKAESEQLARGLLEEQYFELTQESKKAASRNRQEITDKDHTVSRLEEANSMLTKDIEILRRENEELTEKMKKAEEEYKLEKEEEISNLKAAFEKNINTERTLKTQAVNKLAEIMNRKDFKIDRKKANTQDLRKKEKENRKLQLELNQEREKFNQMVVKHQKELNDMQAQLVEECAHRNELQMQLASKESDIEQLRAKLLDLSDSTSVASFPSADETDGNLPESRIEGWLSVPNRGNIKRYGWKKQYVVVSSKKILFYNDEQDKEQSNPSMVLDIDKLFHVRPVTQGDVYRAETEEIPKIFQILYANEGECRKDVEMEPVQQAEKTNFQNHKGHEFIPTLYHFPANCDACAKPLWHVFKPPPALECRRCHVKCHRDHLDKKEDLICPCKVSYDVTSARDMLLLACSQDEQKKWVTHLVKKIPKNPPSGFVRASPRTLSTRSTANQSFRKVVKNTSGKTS
JAK2, sequence (O60674 whole entry): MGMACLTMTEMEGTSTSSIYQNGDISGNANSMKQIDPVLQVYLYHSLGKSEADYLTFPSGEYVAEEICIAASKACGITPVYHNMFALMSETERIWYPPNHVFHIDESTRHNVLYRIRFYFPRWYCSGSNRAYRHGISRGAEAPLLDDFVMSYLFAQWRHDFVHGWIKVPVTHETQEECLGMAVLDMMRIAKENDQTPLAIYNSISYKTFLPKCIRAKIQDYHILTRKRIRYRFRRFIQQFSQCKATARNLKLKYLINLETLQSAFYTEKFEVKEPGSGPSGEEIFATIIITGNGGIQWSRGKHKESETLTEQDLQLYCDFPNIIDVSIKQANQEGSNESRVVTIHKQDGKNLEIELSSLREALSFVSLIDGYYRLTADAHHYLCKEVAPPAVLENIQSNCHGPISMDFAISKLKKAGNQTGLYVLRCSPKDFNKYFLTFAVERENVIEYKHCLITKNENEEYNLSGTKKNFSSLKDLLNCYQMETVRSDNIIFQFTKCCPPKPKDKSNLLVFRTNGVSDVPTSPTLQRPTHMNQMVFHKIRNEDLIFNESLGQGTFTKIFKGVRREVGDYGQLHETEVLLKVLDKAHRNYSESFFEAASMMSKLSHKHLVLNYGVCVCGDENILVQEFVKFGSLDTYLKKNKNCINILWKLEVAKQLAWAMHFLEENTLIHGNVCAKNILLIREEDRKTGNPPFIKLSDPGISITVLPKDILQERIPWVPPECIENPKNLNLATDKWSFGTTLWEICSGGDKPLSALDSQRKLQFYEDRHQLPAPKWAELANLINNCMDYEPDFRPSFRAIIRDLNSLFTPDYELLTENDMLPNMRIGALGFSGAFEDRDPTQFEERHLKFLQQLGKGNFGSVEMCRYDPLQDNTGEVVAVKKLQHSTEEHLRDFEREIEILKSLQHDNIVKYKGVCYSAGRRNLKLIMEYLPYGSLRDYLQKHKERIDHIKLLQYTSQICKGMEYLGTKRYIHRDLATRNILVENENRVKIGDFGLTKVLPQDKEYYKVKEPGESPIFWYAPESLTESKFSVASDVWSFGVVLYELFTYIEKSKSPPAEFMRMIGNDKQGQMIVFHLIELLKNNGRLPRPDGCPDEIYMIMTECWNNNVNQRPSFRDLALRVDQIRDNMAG

`CCC(CC)NC(=O)c1cc(-c2ccnc3[nH]ccc23)c[nH]1` [compound 284]: the inhibition constant (Ki) on JAK3, at JAK2 and at ROCK I was under 500 nM in each case.
For the compound `O=C(NC1CC1)c1cc(-c2ccnc3[nH]ccc23)c[nH]1` [compound 285], the Ki at JAK3, on JAK2 and at ROCK I was under 500 nM each time.
For `O=C(NCC1CC1)c1cc(-c2ccnc3[nH]ccc23)c[nH]1` [compound 286], the Ki at JAK3, on JAK2 and at ROCK I was under 500 nM throughout.
As to `O=C(NC1CCC1)c1cc(-c2ccnc3[nH]ccc23)c[nH]1` [compound 287], the Ki on JAK3, on JAK2 and at ROCK I was under 500 nM each time.
On to `O=C(NC1CCCCC1)c1cc(-c2ccnc3[nH]ccc23)c[nH]1` [compound 288], for which the inhibitory constant (Ki) on JAK3, at JAK2 and on ROCK I was under 500 nM in each case.
Regarding `CC[C@@H](C)NC(=O)c1cc(-c2ccnc3[nH]ccc23)c[nH]1` [compound 289], the inhibition constant (Ki) on JAK3, at JAK2 and on ROCK I was under 500 nM throughout.
On to `CC[C@H](C)NC(=O)c1cc(-c2ccnc3[nH]ccc23)c[nH]1` [compound 290], for which the Ki on JAK3 is 500 to 5000 nM; on JAK2, under 500 nM; on ROCK I it was under 500 nM.
As for `CC(C)CNC(=O)c1cc(-c2ccnc3[nH]ccc23)c[nH]1` [compound 291], the Ki at JAK3, on JAK2 and on ROCK I was under 500 nM throughout.
For the compound `O=C(NCC(F)F)c1cc(-c2ccnc3[nH]ccc23)c[nH]1` [compound 292], the Ki at JAK3, on JAK2 and on ROCK I was under 500 nM throughout.
As to `O=C(NCCC(F)(F)F)c1cc(-c2ccnc3[nH]ccc23)c[nH]1` [compound 293], the Ki on JAK3, at JAK2 and on ROCK I was under 500 nM each time.
With `C#CCNC(=O)c1cc(-c2ccnc3[nH]ccc23)c[nH]1` [compound 294], the Ki at JAK3, at JAK2 and at ROCK I was under 500 nM each time.
`N#CCNC(=O)c1cc(-c2ccnc3[nH]ccc23)c[nH]1` [compound 295]: the inhibitory constant (Ki) on JAK3, at JAK2 and at ROCK I was under 500 nM each time.
Consider `N#CCCNC(=O)c1cc(-c2ccnc3[nH]ccc23)c[nH]1` [compound 296], for which the Ki on JAK3, at JAK2 and at ROCK I was under 500 nM throughout.
Regarding `CCN(CCC#N)C(=O)c1cc(-c2ccnc3[nH]ccc23)c[nH]1` [compound 297], the Ki on JAK3, at JAK2 and at ROCK I was under 500 nM each time.
For the compound `C=CCN(CC=C)C(=O)c1cc(-c2ccnc3[nH]ccc23)c[nH]1` [compound 298], the inhibition constant Ki on JAK3, on JAK2 and on ROCK I was under 500 nM each time.
Turning to `N#CCCN(Cc1cccnc1)C(=O)c1cc(-c2ccnc3[nH]ccc23)c[nH]1` [compound 299], the Ki on JAK3, on JAK2 and on ROCK I was under 500 nM in each case.
With `CCCCN(CC#N)C(=O)c1cc(-c2ccnc3[nH]ccc23)c[nH]1` [compound 300], the inhibition constant Ki at JAK3, at JAK2 and at ROCK I was under 500 nM each time.
As for `CCCN(CC1CC1)C(=O)c1cc(-c2ccnc3[nH]ccc23)c[nH]1` [compound 301], the Ki at JAK3, on JAK2 and at ROCK I was under 500 nM each time.
As to `CCCN(CCC#N)C(=O)c1cc(-c2ccnc3[nH]ccc23)c[nH]1` [compound 302], the inhibition constant (Ki) at JAK3, at JAK2 and on ROCK I was under 500 nM throughout.
For `CCCCN(CCC#N)C(=O)c1cc(-c2ccnc3[nH]ccc23)c[nH]1` [compound 303], the Ki at JAK3, at JAK2 and at ROCK I was under 500 nM in each case.
Turning to `CCN(Cc1ccccc1)C(=O)c1ccc(-c2ccnc3[nH]ccc23)s1` [compound 304], the Ki at JAK3, on JAK2 and at ROCK I was under 500 nM in each case.
With `CCN(Cc1ccccn1)C(=O)c1cc(-c2ccnc3[nH]ccc23)c[nH]1` [compound 305], the figures for the Ki on JAK3, at JAK2 and at ROCK I were under 500 nM, under 500 nM and 500 to 5000 nM, respectively.
Regarding `CN(CCC#N)C(=O)c1cc(-c2ccnc3[nH]ccc23)c[nH]1` [compound 306], the Ki at JAK3, on JAK2 and on ROCK I was under 500 nM each time.
Consider `C#CCN(C)C(=O)c1cc(-c2ccnc3[nH]ccc23)c[nH]1` [compound 307], for which the inhibition constant Ki at JAK3, on JAK2 and on ROCK I was under 500 nM each time.
Turning to `COCCN(CCOC)C(=O)c1cc(-c2ccnc3[nH]ccc23)c[nH]1` [compound 308], the results for the Ki at JAK3, at JAK2 and on ROCK I were under 500 nM, under 500 nM and 500 to 5000 nM, respectively.
`CCCN(CCC)C(=O)c1cc(-c2ccnc3[nH]ccc23)c[nH]1` [compound 309]: the Ki on JAK3, at JAK2 and at ROCK I was under 500 nM throughout.
For the compound `CC(C)CN(C)C(=O)c1cc(-c2ccnc3[nH]ccc23)c[nH]1` [compound 310], the values for the Ki at JAK3, on JAK2 and on ROCK I were under 500 nM, under 500 nM and 500 to 5000 nM, respectively.
In the case of `CC(C)CN(CC(C)C)C(=O)c1cc(-c2ccnc3[nH]ccc23)c[nH]1` [compound 311], the Ki on JAK3, at JAK2 and at ROCK I was under 500 nM throughout.
On to `N#CCCN(Cc1ccccc1)C(=O)c1cc(-c2ccnc3[nH]ccc23)c[nH]1` [compound 312], for which the inhibition constant (Ki) on JAK3, on JAK2 and on ROCK I was under 500 nM in each case.
With `CCN(Cc1ccccc1)C(=O)c1cc(-c2ccnc3[nH]ccc23)c[nH]1` [compound 313], the Ki on JAK3, at JAK2 and on ROCK I was under 500 nM in each case.
Consider `CCN(CCC#N)C(=O)c1ccc(-c2ccnc3[nH]ccc23)s1` [compound 314], for which the inhibition constant Ki on JAK3, at JAK2 and on ROCK I was under 500 nM in each case.
As to `C=CCN(CC=C)C(=O)c1ccc(-c2ccnc3[nH]ccc23)s1` [compound 315], the inhibitory constant (Ki) at JAK3, at JAK2 and at ROCK I was under 500 nM in each case.
Take `N#CCCN(Cc1cccnc1)C(=O)c1ccc(-c2ccnc3[nH]ccc23)s1` [compound 316]: the Ki at JAK3, at JAK2 and on ROCK I was under 500 nM throughout.
As for `CCCCN(CC#N)C(=O)c1ccc(-c2ccnc3[nH]ccc23)s1` [compound 317], the inhibition constant (Ki) on JAK3, at JAK2 and at ROCK I was under 500 nM in each case.
On to `CCN(Cc1ccccn1)C(=O)c1ccc(-c2ccnc3[nH]ccc23)s1` [compound 318], for which the inhibition constant (Ki) at JAK3, at JAK2 and at ROCK I was under 500 nM throughout.
`CCCN(CC1CC1)C(=O)c1ccc(-c2ccnc3[nH]ccc23)s1` [compound 319]: the inhibitory constant (Ki) on JAK3, on JAK2 and at ROCK I was under 500 nM throughout.
Consider `CCCN(CCC#N)C(=O)c1ccc(-c2ccnc3[nH]ccc23)s1` [compound 320], for which the Ki on JAK3, on JAK2 and on ROCK I was under 500 nM each time.
For `CCCCN(CCC#N)C(=O)c1ccc(-c2ccnc3[nH]ccc23)s1` [compound 321], the Ki on JAK3, at JAK2 and on ROCK I was under 500 nM throughout.
